According to patent publication US12696901B2, “Pesticidally active heterocyclic derivatives with sulfur containing substituents” (SYNGENTA CROP PROTECTION AG, priority 2020, dated 2026):

Columns and labels:
Assay type in all cases: in vivo
[1] = tested on: Diabrotica balteata (Corn Root Worm); experiment: Activity against Diabrotica balteata (corn root worm), corn seedlings on filter paper in cups; conditions: 120 h, application rate 3 ppm, L2 larva, 5 days after treatment, read-out: effect in at least one of the two categories (mortality or growth inhibition)
Method: Example B12: Activity Against Diabrotica Balteata (Corn Root Worm)
Three corn seedlings were placed on wetted filter paper in plastic cups, and 3 ml of diluted test solutions were pipetted onto them. The cups were infested with 10 L2 larva and checked for mortality and growth regulation 5 days after treatment.

[2] = tested on: Myzus persicae (Green Peach Aphid); experiment: Activity against Myzus persicae (green peach aphid), feeding/contact activity; conditions: 144 h, application rate 200 ppm, mixed ages, 6 days after infestation
Method: Example B6: Activity Against Myzus persicae (Green Peach Aphid) Feeding/Contact Activity
Sunflower leaf discs were placed onto agar in a 24-well microtiter plate and sprayed with aqueous test solutions prepared from 10,000 ppm DMSO stock solutions. After drying, the leaf discs were infested with an aphid population of mixed ages. The samples were assessed for mortality 6 days after infestation.

[3] = tested on: Spodoptera littoralis (Egyptian Cotton Leaf Worm); experiment: Activity against Spodoptera littoralis (Egyptian cotton leaf worm), sprayed cotton leaf discs; conditions: foliar, 72 h, application rate 200 ppm, L1 larvae, 3 days after infestation
How it was run: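 Leaf discs on agar were sprayed with aqueous solutions prepared from 10,000 ppm DMSO stock, dried, then infested with five L1 larvae. Mortality, anti-feeding and growth inhibition were scored against untreated discs 3 days after infestation. Control was recorded when any one category exceeded the untreated sample.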

[4] = tested on: Plutella xylostella (Diamond Back Moth); experiment: Activity against Plutella xylostella (diamond back moth), treated artificial diet; conditions: 192 h, application rate 200 ppm, eggs, 8 days after infestation, read-out: effect in at least one of the two categories (mortality or growth inhibition)
How it was run: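 Artificial diet treated with aqueous test solutions made from 10,000 ppm DMSO stocks, dried, then infested with Plutella eggs. Mortality and growth inhibition scored against untreated samples 8 days after infestation.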

[5] = tested on: Carpocapsa (Cydia) Pomonella (Codling Moth); experiment: Activity against Carpocapsa (Cydia) pomonella (codling moth), sprayed diet cubes; conditions: 336 h, application rate 12.5 ppm, L1 larvae, 14 days after infestation, read-out: effect in at least one of the two categories (mortality or growth inhibition)
How it was run: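 Paraffin-coated diet cubes were sprayed with test solutions at 12.5 ppm, dried, and infested with one L1 larva each (10 replicates). After incubation at 26–27 °C, mortality and growth inhibition were scored 14 days after infestation.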

[6] = tested on: Frankliniella occidentalis (Western Flower Thrips); experiment: Activity against Frankliniella occidentalis (western flower thrips), sprayed sunflower leaf discs; conditions: foliar, 168 h, application rate 200 ppm, population of mixed ages, 7 days after infestation
Method: Example B4: Activity Against Frankliniella occidentalis (Western Flower Thrips)
Sunflower leaf discs were placed on agar in 24-well microtiter plates and sprayed with aqueous test solutions prepared from 10,000 ppm DMSO stock solutions. After drying the leaf discs were infested with a Frankliniella population of mixed ages. The samples were assessed for mortality 7 days after infestation.

[7] = tested on: Bemisia tabaci (Cotton White Fly); experiment: Activity against Bemisia tabaci (cotton white fly), sprayed cotton leaf discs; conditions: foliar, 144 h, application rate 200 ppm, adult white flies, 6 days after incubation
Method: Example B1: Activity Against Bemisia tabaci (Cotton White Fly)
Cotton leaf discs were placed on agar in 24-well microtiter plates and sprayed with aqueous test solutions prepared from 10,000 ppm DMSO stock solutions. After drying the leaf discs were infested with adult white flies. The samples were checked for mortality 6 days after incubation.

[8] = tested on: Euschistus heros (Neotropical Brown Stink Bug); experiment: Activity against Euschistus heros (neotropical brown stink bug), sprayed soybean leaves; conditions: 120 h, application rate 200 ppm, N2 nymphs, 5 days after infestation, read-out: effect in at least one of the two categories (mortality or growth inhibition)
Method: Example B3: Activity Against Euschistus heros (Neotropical Brown Stink Bug)
Soybean leaves on agar in 24-well microtiter plates were sprayed with aqueous test solutions prepared from 10,000 ppm DMSO stock solutions. After drying the leaves were infested with N2 nymphs. The samples were assessed for mortality and growth inhibition in comparison to untreated samples 5 days after infestation.

[9] = tested on: Diabrotica balteata (Corn Root Worm); experiment: Activity against Diabrotica balteata (corn root worm), sprayed maize sprouts on agar; conditions: 96 h, application rate 200 ppm, L2 larvae, 4 days after infestation, read-out: effect in at least one of the two categories (mortality or growth inhibition)
Method: Example B2: Activity Against Diabrotica balteata (Corn Root Worm)
Maize sprouts placed onto an agar layer in 24-well microtiter plates were treated with aqueous test solutions prepared from 10,000 ppm DMSO stock solutions by spraying. After drying, the plates were infested with L2 larvae (6 to 10 per well). The samples were assessed for mortality and growth inhibition in comparison to untreated samples 4 days after infestation.

[10] = tested on: Tetranychus urticae (Two-Spotted Spider Mite); experiment: Activity against Tetranychus urticae (two-spotted spider mite), sprayed bean leaf discs; conditions: foliar, 192 h, application rate 200 ppm, mixed population (mobile stages), 8 days after infestation
Method: Example B9: Activity Against Tetranychus urticae (Two-Spotted Spider Mite)
Bean leaf discs on agar in 24-well microtiter plates were sprayed with aqueous test solutions prepared from 10,000 ppm DMSO stock solutions. After drying the leaf discs were infested with a mite population of mixed ages. The samples were assessed for mortality on mixed population (mobile stages) 8 days after infestation.

[11] = tested on: Chilo suppressalis (Striped Rice Stemborer); experiment: Activity against Chilo suppressalis (striped rice stemborer), treated artificial diet; conditions: 144 h, application rate 200 ppm, L2 larvae, 6 days after infestation
How it was run: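 Artificial diet treated with aqueous test solutions made from 10,000 ppm DMSO stocks, dried, then infested with L2 larvae, 6-8 per well. Mortality, anti-feeding effect and growth inhibition scored versus untreated samples 6 days after infestation; control counted when any one category exceeds the untreated sample.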

CCS(=O)(=O)c1c(N2Cc3ccc(OC(F)(F)F)cc3C2=O)nc2cc(C3(C#N)CC3)ccn12 [Compound P5, 1-[3-ethylsulfonyl-2-[1-oxo-6-(trifluoromethoxy)isoindolin-2-yl]imidazo[1,2-a]pyridin-7-yl] cyclopropane-carbonitrile]
≥ 80%: percent effect (mortality or growth inhibition) at 3 ppm [1] | mortality at 200 ppm [2] | percent control (mortality, anti-feedant effect or growth inhibition) at 200 ppm [3] | percent effect (mortality or growth inhibition) at 200 ppm [4] | percent effect (mortality or growth inhibition) at 12.5 ppm [5] | mortality at 200 ppm [6] | mortality at 200 ppm [7] | percent effect (mortality or growth inhibition) at 200 ppm [8] | percent effect (mortality or growth inhibition) at 200 ppm [9]

CCS(=O)(=O)c1c(N2Cc3ncc(C(F)(F)F)cc3C2=O)nc2ccc(OC(F)F)cn12 [Compound P10, 6-[6-(difluoromethoxy)-3-ethylsulfonyl-imidazo[1,2-a]pyridin-2-yl]-3-(trifluoromethyl)-7H-pyrrolo[3,4-b]pyridin-5-one]
≥ 80%: percent effect (mortality or growth inhibition) at 3 ppm [1] | mortality at 200 ppm [10] | mortality at 200 ppm [2] | percent control (mortality, anti-feedant effect or growth inhibition) at 200 ppm [3] | percent effect (mortality or growth inhibition) at 200 ppm [4] | percent effect (mortality or growth inhibition) at 12.5 ppm [5] | mortality at 200 ppm [6] | mortality at 200 ppm [7] | percent effect (mortality or growth inhibition) at 200 ppm [8] | percent effect (mortality or growth inhibition) at 200 ppm [9] | percent control (mortality, anti-feedant effect or growth inhibition) at 200 ppm [11]

CCS(=O)(=O)c1c(N2Cc3ccc(OC(F)(F)F)cc3C2=O)nc2ccc(C3(C#N)CC3)cn12 [Compound P14, 1-[3-ethylsulfonyl-2-[1-oxo-6-(trifluoromethoxy)isoindolin-2-yl]imidazo[1,2-a]pyridin-6-yl] cyclopropane-carbonitrile]
≥ 80%: percent effect (mortality or growth inhibition) at 3 ppm [1] | mortality at 200 ppm [10] | mortality at 200 ppm [2] | percent control (mortality, anti-feedant effect or growth inhibition) at 200 ppm [3] | percent effect (mortality or growth inhibition) at 200 ppm [4] | percent effect (mortality or growth inhibition) at 12.5 ppm [5] | mortality at 200 ppm [6] | mortality at 200 ppm [7] | percent effect (mortality or growth inhibition) at 200 ppm [8] | percent effect (mortality or growth inhibition) at 200 ppm [9]

CCS(=O)(=O)c1c(N2Cc3ncc(C(F)(F)F)cc3C2=O)nc2ccc(C3(C#N)CC3)cn12 [Compound P15, 1-[3-ethylsulfonyl-2-[5-oxo-3-(trifluoromethyl)-7H-pyrrolo[3,4-b]pyridin-6-yl]imidazo [1,2-a]pyridin-6-yl] cyclopropane-carbonitrile]
≥ 80%: percent effect (mortality or growth inhibition) at 3 ppm [1] | mortality at 200 ppm [10] | mortality at 200 ppm [2] | percent control (mortality, anti-feedant effect or growth inhibition) at 200 ppm [3] | percent effect (mortality or growth inhibition) at 200 ppm [4] | percent effect (mortality or growth inhibition) at 12.5 ppm [5] | mortality at 200 ppm [6] | mortality at 200 ppm [7] | percent effect (mortality or growth inhibition) at 200 ppm [8] | percent effect (mortality or growth inhibition) at 200 ppm [9]

CCS(=O)(=O)c1c(N2Cc3ccc(C(F)(F)F)cc3C2=O)nc2ccc(C3(C#N)CC3)cn12 [Compound P16, 1-[3-ethylsulfonyl-2-[1-oxo-6-(trifluoromethyl)isoindolin-2-yl]imidazo[1,2-a]pyridin-6-yl] cyclopropane-carbonitrile]
≥ 80%: percent effect (mortality or growth inhibition) at 3 ppm [1] | mortality at 200 ppm [10] | mortality at 200 ppm [2] | percent control (mortality, anti-feedant effect or growth inhibition) at 200 ppm [3] | percent effect (mortality or growth inhibition) at 200 ppm [4] | percent effect (mortality or growth inhibition) at 12.5 ppm [5] | mortality at 200 ppm [7] | percent effect (mortality or growth inhibition) at 200 ppm [8] | percent effect (mortality or growth inhibition) at 200 ppm [9]

CCS(=O)(=O)c1c(N2Cc3ccc(OC(F)(F)F)cc3C2=O)nc2ccc(C(C)(F)F)cn12 [Compound P17, 2-[6-(1,1-difluoroethyl)-3-ethylsulfonyl-imidazo[1,2-a]pyridin-2-yl]-6-(trifluoromethoxy) isoindolin-1-one]
≥ 80%: percent effect (mortality or growth inhibition) at 3 ppm [1] | mortality at 200 ppm [10] | mortality at 200 ppm [2] | percent control (mortality, anti-feedant effect or growth inhibition) at 200 ppm [3] | percent effect (mortality or growth inhibition) at 200 ppm [4] | percent effect (mortality or growth inhibition) at 12.5 ppm [5] | mortality at 200 ppm [6] | mortality at 200 ppm [7] | percent effect (mortality or growth inhibition) at 200 ppm [8] | percent effect (mortality or growth inhibition) at 200 ppm [9] | percent control (mortality, anti-feedant effect or growth inhibition) at 200 ppm [11]

CCS(=O)(=O)c1c(N2Cc3ccc(S(=O)(=O)C(F)(F)F)cc3C2=O)nc2cc(OCC(F)(F)F)ccn12 [Compound P33, 2-[3-ethylsulfonyl-7-(2,2,2-trifluoroethoxy)imidazo[1,2-a]pyridin-2-yl]-6-(trifluoromethylsulfonyl)isoindolin-1-one]
≥ 80%: percent effect (mortality or growth inhibition) at 3 ppm [1] | mortality at 200 ppm [2] | percent control (mortality, anti-feedant effect or growth inhibition) at 200 ppm [3] | percent effect (mortality or growth inhibition) at 200 ppm [4] | percent effect (mortality or growth inhibition) at 12.5 ppm [5] | mortality at 200 ppm [6] | mortality at 200 ppm [7] | percent effect (mortality or growth inhibition) at 200 ppm [8] | percent effect (mortality or growth inhibition) at 200 ppm [9] | percent control (mortality, anti-feedant effect or growth inhibition) at 200 ppm [11]

CCS(=O)(=O)c1c(N2Cc3ccc(S(=O)(=O)C(F)(F)F)cc3C2=O)nc2cc(C(F)(F)F)ccn12 [Compound P37, 2-[3-ethylsulfonyl-7-(trifluoromethyl)imidazo[1,2-a]pyridin-2-yl]-6-(trifluoromethyl-sulfonyl) isoindolin-1-one]
≥ 80%: percent effect (mortality or growth inhibition) at 3 ppm [1] | mortality at 200 ppm [2] | percent control (mortality, anti-feedant effect or growth inhibition) at 200 ppm [3] | mortality at 200 ppm [6] | mortality at 200 ppm [7] | percent effect (mortality or growth inhibition) at 200 ppm [8] | percent effect (mortality or growth inhibition) at 200 ppm [9] | percent control (mortality, anti-feedant effect or growth inhibition) at 200 ppm [11]
